Assays:
DNMT1/3a/3b = DNMT1/3a/3b activities, overall statements; type: biochemical; details: for effect on enzymatic activities: controls
Procedure: For the DNMT1 activity assay, the substrate solution, 0.001 mg/ml Poly(dI-dC):Poly(dI-dC) in 50 mM Tris-HCl, pH 7.5, 50 mM NaCl, 5 mM EDTA, 5 mM DTT, 1 mM PMSF, 5% glycerol, 0.01% Brij35, 1% DMSO was used. For the DNMT3a/3b activity assay, 0.0075 mg/ml Lambda DNA in 50 mM Tris-HCl, pH 7.5, 50 mM NaCl, 5 mM EDTA, 5 mM DTT, 1 mM PMSF, 5% glycerol, 1% DMSO, was used. The indicated DNMT1, DNMT3a, or DNMT3b was added to the appropriate substrate solution and gently mixed. […] The mixtures were first incubated for 15 min, then ^3H-SAM was added to the reaction mixture to initiate the reaction, and the mixture was incubated for 60 min at 30° C. Following incubation, the reaction mixture was finally transferred to filter-paper for detection of radioactivity counts.

[1] = Metabolite profiling of plasma, urine, feces after intravenous dose (HPLC radiodetection, MS); type: in vivo, rats; details: iv 10 mg/kg
Procedure: Plasma pools were made from Group 1 rats at the 0.083, 0.25, 0.5, and 1-hour collection time points.
Urine pools were prepared for Group 2 at 0 to 6 and 6 to 12 hours post-dose. […] Four metabolites present at <10% relative observed intensity in at least 1 sample were M7 (<5% relative observed intensity), M16 (<3% relative observed intensity), M19 (<6% relative observed intensity), and M25 (<5% relative observed intensity).
Feces pools were prepared for Group 2 at 0 to 12, 12 to 24, and 24 to 48 hours post-dose.

[2] = Metabolite profiling of plasma and feces after oral dose (radio-HPLC, HPLC/MS); parameters: species or system rats; details: Sprague Dawley, rat, in vivo, 75 mg/kg
Procedure: Radiolabeled components in plasma and feces extracts were profiled and identified using radio-high performance liquid chromatography (HPLC) and high performance liquid chromatography/mass spectrometry (HPLC/MS) methods.
Plasma pools were prepared for Group 1 (75 mg/kg, [14C]-25HC3S) samples collected at 2, 4, and 6 hours post-dose. […] One metabolite M29 was identified as 25-hydroxycholesterol with 37% ROI and a concentration of 1233 ng-equiv./g.
Feces pools were prepared for Group 2 (75 mg/kg, [^14C]-25HC3S) samples collected from 0 to 24, 24 to 48, 48 to 72, 72 to 96, 96 to 120, 120 to 144, and 144 to 168 hours post-dose. A total of eleven metabolites were identified. None of the metabolites were present at ≥5% of dose. Metabolites present at 2-5% of dose were M1(4.5% of total dose and 1%-69% ROI), M3 (4.6% of total dose and 1%-44% ROI), M4 (2.0% of total dose and 0%-10% ROI), M8 (3.1% of total dose and 1%-46% ROI), M29 (1.9% of total dose and 0%-2% ROI), and M30 (3.3% of total dose and 0%-5% ROI).

| Compound | effect on enzymatic activities (DNMT1/3a/3b) | detection in plasma, urine, or feces samples [1] | also measured |
| --- | --- | --- | --- |
| CC(C)CCC[C@@H](C)[C@H]1CC[C@H]2[C@@H]3CC=C4C[C@@H](OS(=O)(=O)O)CC[C@]4(C)[C@H]3CC[C@]12C [Xol3S, 5-cholesten-3β-ol, 3-sulfate] | did not significantly affect enzymatic activities |  |  |
| C[C@H](CCCC(C)(C)O)[C@H]1CC[C@H]2[C@@H]3CC=C4C[C@@H](O)CC[C@]4(C)[C@H]3CC[C@]12C [25HC, 25-Hydroxycholesterol, reference compound] |  | Neither desmosterol sulfate nor 25-hydroxycholesterol was detected |  |
| CC(C)CCC[C@@H](C)[C@H]1CC[C@H]2[C@@H]3CC=C4C[C@@H](O)CC[C@]4(C)[C@H]3CC[C@]12C [Xol, Cholesterol] | did not significantly affect enzymatic activities |  |  |
| desmosterol sulfate |  | Neither desmosterol sulfate nor 25-hydroxycholesterol was detected |  |
| C[C@@H](CO)CCC[C@@H](C)[C@H]1CC[C@H]2[C@@H]3CC=C4C[C@@H](O)CC[C@]4(C)[C@H]3CC[C@]12C [27HC, 27-Hydroxycholesterol] |  |  | effect on other enzymes (than DNMT-1) (DNMT1/3a/3b): had no effect on other enzymes |
| C[C@H](CCCC(C)(C)O)[C@H]1CC[C@H]2[C@@H]3CC=C4C[C@@H](O)CC[C@]4(C)[C@H]3CC[C@]12C [M29, 25-hydroxycholesterol] |  |  | ROI in feces [2]: 0-2% |

Source: patent US20230372361A1, “USE OF OXYGENATED CHOLESTEROL SULFATES FOR TREATING INFLAMMATORY CONDITIONS” (Durect Corporation, priority 2020, published 2023)
